# Like-named read-outs stand apart in the source and are kept apart here. No end group written: not given here.
# How the values were obtained:
# Test in all cases: biochemical
# Format in all cases: binding
# HLA-DR DRB1*0101 (DR1) = HLA-DR DRB1*0101 (DR1) (Homo sapiens, UniProt P01903+P01911, A100R/D57E/F55L/F60I/F76Y/I96L/L162R/M171V/P40L/Q125E/R42F/V115G/Y59C)
# HLA-DR DRB1*0301 (DR3) = HLA-DR DRB1*0301 (DR3) (Homo sapiens, UniProt P01903+P01911, A100K/A102G/A103R/A169T/F55Y/I96L/K41T/L162R/M171V/P40S/Q125H/Q178H/Q39Y/R42S/S66N/T106N/T262R/W38E/Y61H)
# Sequence of HLA-DR DRB1*0301 (DR3) (P01903 26-254 limits assumed, other chains not shown): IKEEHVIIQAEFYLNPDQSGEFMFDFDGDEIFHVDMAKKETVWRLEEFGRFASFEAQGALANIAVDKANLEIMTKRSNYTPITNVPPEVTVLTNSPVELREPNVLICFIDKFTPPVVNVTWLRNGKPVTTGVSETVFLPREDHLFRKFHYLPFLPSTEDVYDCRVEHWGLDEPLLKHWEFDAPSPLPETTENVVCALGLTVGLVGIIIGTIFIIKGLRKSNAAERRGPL
# HLA-DR DRB1*0401 (DR4) = HLA-DR DRB1*0401 (DR4) (Homo sapiens, UniProt P01903+P01911, A100K/A169T/F76Y/I96L/K127E/L162R/M171V/N62H/P40V/Q125Y/R42H/S133A/S149N/S66Y/V115G/V209L/W38E)
# HLA-DR DRB1*0405 (DR4) = HLA-DR DRB1*0405 (DR4) (Homo sapiens, UniProt P01903+P01911, A100R/A169T/D86S/F76Y/I96L/K127E/L162R/M171V/N62H/P40V/Q125Y/R42H/S133A/S149N/S66Y/V115G/V209L/W38E)
# HLA-DR DRB1*0701 (DR7) = HLA-DR DRB1*0701 (DR7) (Homo sapiens, UniProt P01903+P01911, A100R/A102G/A103Q/D57E/D86V/E43K/F76Y/K127E/L162R/M171V/P40G/Q125H/Q99D/R33Q/R42Y/R54Q/S133A/S66F/T210M/V115G/Y107V/Y59L/Y89S)
# HLA-DR DRB1*0901 (DR9) = HLA-DR DRB1*0901 (DR9) (Homo sapiens, UniProt P01903+P01911, A100R/A103E/D57H/D86V/F55Y/F60I/F76Y/I96F/K127E/L162R/M171V/P40D/Q125H/Q99R/R33Q/R42F/S133A/S66N/T210M/V115G/W38K/Y107V/Y59G/Y89S); details: DRB1 *0901
# HLA-DR DRB1*1101 (DR11) = HLA-DR DRB1*1101 (DR11) (Homo sapiens, UniProt P01903+P01911, A100R/A169T/A87E/I96F/K41T/L162R/M171V/P40S/Q125H/Q178H/Q39Y/Q99D/R42S/S66Y/T262R/V115G/W38E)
# Sequence of HLA-DR DRB1*1101 (DR11) (P01903 26-254 limits assumed, other chains not shown): as above
# HLA-DR DRB1*1302 (DR13) = HLA-DR DRB1*1302 (DR13) (Homo sapiens, UniProt P01903+P01911, A100E/A169T/K41T/L162R/M171V/P40S/Q125H/Q178H/Q39Y/Q99D/R42S/S66N/T262R/V115G/W38E/Y61H)
# Sequence of HLA-DR DRB1*1302 (DR13) (P01903 26-254 limits assumed, other chains not shown): as above
# HLA-DR DRB1*1501 (DR15) = HLA-DR DRB1*1501 (DR15) (Homo sapiens, UniProt P01903+P01911)
# HLA-DR DRB3*0101 (DR52) = HLA-DR DRB3*0101 (DR52) (Homo sapiens, UniProt P01903+P79483)
# HLA-DR DRB4*0101 (DR53) = HLA-DR DRB4*0101 (DR53) (Homo sapiens, UniProt P01903+P13762, G164S)
# HLA-DR DRB5*0101 (DR51) = HLA-DR DRB5*0101 (DR51) (Homo sapiens, UniProt P01903+Q30154)
# HLA-DR DRB1*0802 (DR8) = HLA-DR DRB1*0802 (DR8) (Homo sapiens, UniProt P01903+P01911, A100R/A103L/A169T/F76Y/H45Y/I96F/K41T/L162R/M171V/P40S/Q125H/Q178H/Q39Y/Q99D/R218S/R42G/S66Y/V115G/W38E)
Molecule,IC50 (HLA-DR DRB1*0101 (DR1); DRB1 *0101),IC50 (HLA-DR DRB1*0301 (DR3)),IC50 (HLA-DR DRB1*0401 (DR4); DRB1 *0401),IC50 (HLA-DR DRB1*0405 (DR4); DRB1 *0405),IC50 (HLA-DR DRB1*0701 (DR7); DRB1 *0701),IC50 (HLA-DR DRB1*1101 (DR11); DRB1 *1101),IC50 (HLA-DR DRB1*1302 (DR13); DRBI *1302),IC50 (HLA-DR DRB1*1501 (DR15); DRBI *1501),IC50 (HLA-DR DRB3*0101 (DR52)),IC50 (HLA-DR DRB4*0101 (DR53); DRB4 *0101),IC50 (HLA-DR DRB5*0101 (DR51); DRB5 *0101),IC50 (HLA-DR DRB1*0802 (DR8)),IC50 (HLA-DR DRB1*0405 (DR4)),IC50 (HLA-DR DRB1*0701 (DR7)),IC50 (HLA-DR DRB1*1101 (DR11)),IC50 (HLA-DR DRB1*1302 (DR13)),IC50 (HLA-DR DRB1*1501 (DR15)),IC50 (HLA-DR DRB4*0101 (DR53)),IC50 (HLA-DR DRB5*0101 (DR51)),further results
CC[C@H](C)[C@H](NC(=O)CNC(=O)[C@H](CC(C)C)NC(=O)[C@H](CC(C)C)NC(=O)[C@H](CCCNC(=N)N)NC(=O)[C@H](CO)NC(=O)[C@@H](NC(=O)[C@H](Cc1ccc(O)cc1)NC(=O)[C@@H]1CCCN1C(=O)[C@H](CO)NC(=O)CNC(=O)[C@@H](NC(=O)CN)C(C)C)C(C)C)C(=O)N[C@@H](CS)C(=O)N[C@@H](CC(C)C)C(=O)O,0.019 µM,168 µM,1.57 µM,4.16 µM,0.19 µM,0.696 µM,0.955 µM,0.046 µM,149 µM,,,,,,,,,,,IC50 (HLA-DR DRB1*0901 (DR9)): 2.61 µM
EMLQNIFAIFRQDSS,0.395 µM,9.54 µM,0.685 µM,0.456 µM,3.31 µM,36.8 µM,0.061 µM,1.72 µM,0.726 µM,0.164 µM,3.19 µM,,,,,,,,,IC50 (HLA-DR DRB1*0901 (DR9)): 9.74 µM
SNLELLRICLLLIQS,,61.9 µM,,1.11 µM,1.22 µM,> 15.4 µM,0.773 µM,0.09 µM,17 µM,0.164 µM,> 11.8 µM,19.8 µM,,,,,,,,
YLVCGERGFFYTDKT,,11.8 µM,> 20.5 µM,> 30.1 µM,92.3 µM,> 60.6 µM,1.01 µM,> 25.6 µM,0.616 µM,48.1 µM,> 28.4 µM,> 54.4 µM,,,,,,,,
GAPLGGAAAALAHGV,,82.1 µM,,,,,,,> 51.1 µM,,,,> 3.37 µM,31.9 µM,43.8 µM,23.8 µM,7.68 µM,0.031 µM,12.9 µM,IC50 (HLA-DR DRB1*0401 (DR4)): 5.47 µM
FTRGKRMSSLHLKRY,0.013 µM,3.3 µM,1.01 µM,0.484 µM,,0.081 µM,10.2 µM,,18.8 µM,2.03 µM,0.084 µM,0.553 µM,,,,,,,,
RPIVNMDYVVGARTFRREKR,0.029 µM,0.022 µM,0.0031 µM,0.812 µM,0.346 µM,,0.073 µM,0.043 µM,3.32 µM,0.16 µM,0.0066 µM,0.748 µM,,,,,,,,
YGAVVNLRKTVVNFP,13.5 µM,150 µM,4.19 µM,> 95 µM,8.27 µM,0.089 µM,11.2 µM,0.47 µM,51.5 µM,0.302 µM,0.036 µM,,,,,,,,,
ELVSEFSRMARDPQ,0.201 µM,,0.12 µM,15.1 µM,21.3 µM,4.57 µM,> 71.4 µM,7.89 µM,15.8 µM,0.97 µM,,,,,,,,,,IC50 (HLA-DR DRB1*0901 (DR9)): 91.6 µM
LGFLQRSSNCQSQKL,,4.89 µM,0.0081 µM,0.228 µM,0.305 µM,0.604 µM,0.131 µM,,> 1750 µM,0.124 µM,0.508 µM,0.405 µM,,,,,,,,
GAPLGGAARALAAGV,,23.3 µM,,,,,,,> 51.1 µM,,,,> 3.37 µM,7.42 µM,0.045 µM,23.2 µM,5.71 µM,3.87 µM,8.35 µM,IC50 (HLA-DR DRB1*0401 (DR4)): 11.3 µM
HYLKAKEDSHTAWTI,0.232 µM,70.2 µM,0.553 µM,15.1 µM,0.801 µM,> 60.6 µM,2.26 µM,0.529 µM,35.8 µM,11.8 µM,19.6 µM,,,,,,,,,IC50 (HLA-DR DRB1*0901 (DR9)): 10.1 µM
VGGVYLLRRAGPRLGV,,39.8 µM,,,,,,,91.9 µM,,,,6.43 µM,0.433 µM,0.067 µM,> 15.4 µM,0.0062 µM,30.7 µM,0.0079 µM,
RSSNCQSQKLLWQLN,2.05 µM,57.9 µM,0.595 µM,4.01 µM,,> 60.6 µM,1.96 µM,2.96 µM,68.8 µM,0.027 µM,,6.94 µM,,,,,,,,
GAPLGGAARAAAHGV,,378 µM,,,,,,,> 51.1 µM,,,,> 3.37 µM,31.3 µM,3.63 µM,> 23.5 µM,> 8.67 µM,41.4 µM,42.5 µM,IC50 (HLA-DR DRB1*0401 (DR4)): 25.3 µM
VGGVYALPRRGPRLGV,,349 µM,,,,,,,> 66.5 µM,,,,> 12.2 µM,0.749 µM,0.012 µM,> 15.4 µM,0.451 µM,,0.034 µM,IC50 (HLA-DR DRB1*0401 (DR4)): 25.7 µM
APPRLITDSRVLERY,10.1 µM,0.015 µM,6.68 µM,7.77 µM,0.629 µM,2.75 µM,0.092 µM,,0.71 µM,2.26 µM,0.698 µM,,,,,,,,,IC50 (HLA-DR DRB1*0901 (DR9)): 8.39 µM
GAPLGGAARLLAHGV,,23 µM,,,,,,,> 51.1 µM,,,,> 3.37 µM,57.5 µM,0.08 µM,29.4 µM,0.631 µM,2.55 µM,,IC50 (HLA-DR DRB1*0101 (DR1)): 0.398 µM; IC50 (HLA-DR DRB1*0401 (DR4)): 15 µM
GAPLAGAARALAHGV,,2.98 µM,,,,,,,> 71 µM,,,,> 13 µM,8.18 µM,0.0095 µM,7.21 µM,2.81 µM,2.96 µM,7.69 µM,IC50 (HLA-DR DRB1*0401 (DR4)): 39.9 µM
HIEFTPTRTDTYACRV,,,30 µM,10 µM,,≥ 200 µM,,,> 7.14 µM,,≥ 200 µM,> 12.5 µM,,,,,,,,
SFLQNPQTSLTFSES,,2.39 µM,7.78 µM,9.56 µM,6.2 µM,> 15.4 µM,0.121 µM,1.51 µM,0.864 µM,,,> 33.3 µM,,,,,,,,
VGGVYLAPRRGPRLGV,,203 µM,,,,,,,> 66.5 µM,,,,> 12.2 µM,0.878 µM,0.035 µM,> 15.4 µM,0.055 µM,> 42.1 µM,0.076 µM,IC50 (HLA-DR DRB1*0101 (DR1)): 0.746 µM; IC50 (HLA-DR DRB1*0401 (DR4)): 33.7 µM
RTITADTFRKLFRVY,0.148 µM,,1.04 µM,1.96 µM,,,0.095 µM,0.035 µM,0.672 µM,1.56 µM,0.093 µM,0.792 µM,,,,,,,,
VGGVYLLPARGPRLGV,,68.1 µM,,,,,,,18.1 µM,,,,4.58 µM,0.049 µM,0.694 µM,0.201 µM,0.0065 µM,19 µM,0.04 µM,IC50 (HLA-DR DRB1*0101 (DR1)): 0.012 µM

# From patent US20060079453A1, “Hla binding peptides and their uses” (priority 2002, published 2006)
